Legend:
Assay type in all cases: cell-based, murine
3T3-L1 cells = assay: Immunoblotting of adipogenic proteins during differentiation; conditions: differentiated in the presence of 1 μM AZD3965
Protocol: Differentiation Protocol: The 3T3-L1 differentiation protocol was adapted from Green and Meuth (1974) (Zebisch, K, et al. Anal. Biochem. 2012 425:88-90; Green, H, et al. Cell 1974 3:127-133). Cells were seeded at approximately 80% confluency and allowed to reach confluency prior to induction of differentiation. 1-2 days post confluency, growth media was changed to ‘day 0’ media consisting of media supplemented with 0.5 mM 1-methyl-3-isobutyl xanthine (IBMX), 1 µM dexamethasone, and 10 μg/mL insulin. On ‘day 3’ media was changed to growth media with 10 μg/mL insulin only, and on ‘day 6’ media was replaced with normal growth media. After day 6, the complete media was refreshed every 2 days. Using Oil Red O staining, RT-qPCR and immunoblotting, it was determined that 3T3-L1 cells were fully differentiated into lipid-laden adipocytes by ‘day 8’ of the protocol, as reported by others (Petersen, C, et al. Sci. Rep. 2017 7:13101; Mangum, L H, et al. Toxicol. Lett. 2015 238:65-71). All differentiation experiments were performed on cells between passage 4 and 6 to ensure differentiation efficiency was consistent.
Immunoblotting: For the collection of membrane bound proteins (i.e., MCT1), cells were lysed and the membrane fraction of protein was isolated as previously described (Sadler, J B A, et al. Preparation of a total membrane fraction from 3T3-L1 adipocytes (Cold Spring Harb. Protoc. 2016, 2016, pdb-prot083675). Briefly, cells were lysed with ice cold HES buffer (250 mM sucrose, 20 mM HEPES, 1 mM EDTA, pH7.4) containing a cocktail of protease and phosphatase inhibitors (Roche Diagnostic) and centrifuged for 5 min (500 g at 4° C.) to pellet out nuclei. The remaining supernatant (containing cytosolic and membrane bound proteins) was collected. […] For all samples, protein concentration of the lysates was measured using the BCA Protein Assay Kit (Pierce Biotechnologies). […] Bands were quantified using Image Studio™ (LI-COR Biosciences).

3T3-L1-shMCT1 cells = assay: Glucose uptake (Glucose Uptake-Glo) in MCT1 knockdown cells
Protocol: Cell Line Development: Lenti plasmid vectors containing shRNA targeting MCT1 or a shScramble sequence were purchased from Genocopia. Lentiviral particles were produced using HEK293T cells and a third-generation packaging system, MISSION Lentiviral Packaging Mix, as per manufacturer's (Sigma-Aldrich) recommendations. To generate shMCT1 cells, 3T3-L1 cells were seeded and transduced with optimized titers of freshly harvested lentivirus. 12 hr after transduction, medium was changed, and cells were allowed to recover for 24 h before being placed under antibiotic selection (2 μg/mL puromycin [Clontech]) for 3-6 days. Cells surviving antibiotic selection were harvested for both reverse transcription quantitative chain polymerase reaction (RT-qPCR) and immunoblotting analyses.
Glucose Uptake: 3T3-L1 cells were seeded and differentiated in clear bottom 96-well plates (Corning®). After differentiation, cells were treated with or without […] AZD3965 for 24 hr, 48 hr or 72 hr as illustrated in FIG. 7 (schematic outline of experimental procedure). The cells were incubated in serum free media the night before performing the assay. […] Glucose Uptake was measured using the Glucose Uptake-Glo™ Assay (Promega®) according to the manufacturer's protocol. The data generated were normalized by dividing the relative luminescence units (RLU) measured in insulin stimulated wells by vehicle treated controls. […]

[1] = test system: differentiated 3T3-L1 cells; assay: Lipolysis (intracellular glycerol, Glycerol-Glo); conditions: 1 μM, all time points measured (24, 48, 72 hr)
Protocol: Lipolysis (Intracellular Glycerol): 3T3-L1 cells were seeded, differentiated and treated with or without AZD3965 (1 μM) for up to 72 hr in clear 96 well plates (Corning®). After media removal and washing cells with PBS, the Glycerol-Glo™ (Promega®) assay kit was used to assess changes in lipolysis through the quantification of intracellular glycerol according to the manufacturer's instructions. A luminescent signal is produced that is proportional to the amount of glycerol within the sample Luminescence was read on a spectrophotometer (FlexStation 3; Molecular Devices).

[2] = test system: differentiated 3T3-L1 adipocytes; assay: NAD+/NADH ratio (NAD+/NADH-Glo); conditions: 1 μM
Protocol: NAD+/NADH Ratio: 3T3-L1 cells were seeded, differentiated and treated with or without AZD3965 (1 μM) for 15 min, 30 min, 1 hr, 4 hr, 8 hr or 24 hr in clear 96 well plates (Corning®). Following incubation with the compound, the NAD+/NADH-Glo™ (Promega®) kit was used to measure both the NAD+ and NADH concentrations within each sample according to the manufacturer's protocol. Briefly, samples were lysed and split into 2 separate white 96 well plates (Corning®). One plate was treated with a strong acid (0.4N HCl) to eliminate NADH in the sample while the other plate was treated with a strong base (0.2N NaOH) to eliminate NAD+, and both plates were incubated at 60° C. for 15 minutes. Samples were then neutralized and subjected to the NAD+/NADH-Glo™ assay. Within this assay, in the presence of NAD+ or NADH, an enzyme ‘Reductase’ reduces a pro-luciferin reductase substrate to form luciferin which emits a luminescent signal directly proportional to the quantity of NAD+ or NADH within the sample. Luminescence was read on a spectrophotometer (FlexStation 3; Molecular Devices). To calculate the NAD+/NADH ratio for each sample, luminescence from acid-treated samples, (reflecting NAD+level), was divided by the luminescence signal from the corresponding base-treated samples (reflecting NADH levels).

preadipocytes (3T3-L1) = assay: Proliferation (CyQUANT NF) of preadipocytes; conditions: 72 hr

Cc1[nH]nc(C(F)(F)F)c1Cc1sc2c(c1C(=O)N1C[C@](C)(O)CO1)c(=O)n(C)c(=O)n2C(C)C [AZD3965, 5-[[(4S)-4-hydroxy-4-methyl-2-isoxazolidinyl]carbonyl]-3-methyl-1-(1-methylethyl)-6-[[5-methyl-3-(trifluoromethyl)-1H-pyrazol-4-yl]methyl]-thieno[2,3-d]pyrimidine-2,4 (1H, 3H)-dione]
FABP4 protein expression during differentiation (3T3-L1 cells): significantly attenuated
HSL protein expression during differentiation (3T3-L1 cells): significantly attenuated
PPARγ protein expression during differentiation (3T3-L1 cells): significantly attenuated
insulin-stimulated glucose uptake (3T3-L1-shMCT1 cells; 1 μM for 72 hr, 175 nM insulin): do not respond to insulin as robustly as WT 3T3-L1 cells or show any increase
basal, non-insulin stimulated glucose uptake (3T3-L1-shMCT1 cells; 1 μM, up to 72 hr): no significant changes
intracellular glycerol levels (lipolysis) [1]: significantly increased
NAD+/NADH ratio ([2]; all time points measured (15 min-24 hr)): significant change
NAD+/NADH ratio ([2]; first 8 hr of treatment): significant decrease
proliferation (preadipocytes (3T3-L1)): no effect on proliferation
